The values below come from ChEMBL document CHEMBL3745710, “Synthesis, antibacterial and anti-MRSA activity, in vivo toxicity and a structure-activity relationship study of a quinoline thiourea” (Bioorg Med Chem Lett, 2016).

In brackets after ≈: the same amount, converted by molar mass. Activity calls are given as the source filed them. No cut-off for these calls is given here.

Series [1] can be described thus: Toxicity in sixth development stage of Galleria mellonella larvae assessed as survival rate at 10 ug/ml after 48 hrs. The format is organism-based. The following applies: in vivo.
Series [2] is described as follows: Toxicity in sixth development stage of Galleria mellonella larvae assessed as survival rate at 1 ug/ml after 48 hrs. The following applies: in vivo. Type of series: organism-based.
Series [3] in a line: Toxicity in sixth development stage of Galleria mellonella larvae assessed as survival rate at 1000 ug/ml after 72 hrs. Type of series: organism-based. The following applies: in vivo.
Series [4] in a line: Toxicity in sixth development stage of Galleria mellonella larvae assessed as survival rate at 10 ug/ml after 24 hrs. Type of series: organism-based. Particulars: in vivo.
Series [5] concerns Staphylococcus aureus. In words: Antibacterial activity against Staphylococcus aureus NCIMB 12702 after 24 hrs by serial dilution method. Type of series: functional. The following applies: for MIC50 / MIC90 / MIC80: Staphylococcus aureus, NCIMB 12702, 24 h.
For series [6], the system named is Pseudomonas aeruginosa. Description: Antibacterial activity against Pseudomonas aeruginosa ATCC 10145 after 24 hrs by serial dilution method. Type of series: functional, organism-based.
The nature of series [7]: Toxicity in sixth development stage of Galleria mellonella larvae assessed as survival rate at 1 ug/ml after 72 hrs. Type of series: organism-based. The following applies: in vivo.
The nature of series [8]: Toxicity in sixth development stage of Galleria mellonella larvae assessed as survival rate at 1 ug/ml after 24 hrs. Type of series: organism-based. The following applies: in vivo.
Series [9] is described as follows: Toxicity in sixth development stage of Galleria mellonella larvae assessed as survival rate at 1000 ug/ml after 48 hrs. Type of series: organism-based. The following applies: in vivo.
Series [10] can be described thus: Toxicity in sixth development stage of Galleria mellonella larvae assessed as survival rate at 50 ug/ml after 48 hrs. Type of series: organism-based. The following applies: in vivo.
Series [11] in a line: Toxicity in sixth development stage of Galleria mellonella larvae assessed as survival rate at 50 ug/ml after 24 hrs. Type of series: organism-based. Particulars: in vivo.
A short description of series [12]: Toxicity in sixth development stage of Galleria mellonella larvae assessed as survival rate at 1000 ug/ml after 24 hrs. Particulars: in vivo. The format is organism-based.
The nature of series [13]: Toxicity in sixth development stage of Galleria mellonella larvae assessed as survival rate at 10 ug/ml after 72 hrs. The format is organism-based. Particulars: in vivo.
Series [14] can be described thus: Toxicity in sixth development stage of Galleria mellonella larvae assessed as survival rate at 100 ug/ml after 48 hrs. The format is organism-based. The following applies: in vivo.
Series [15] has as its system Galleria mellonella. In words: Toxicity in sixth development stage of Galleria mellonella larvae assessed as larvae pupation at 1 to 1000 ug/ml after 7 days relative to control. Type of series: organism-based. Particulars: in vivo, 168 h.
Series [16] relates to Escherichia coli. Description: Antibacterial activity against Escherichia coli NCIMB 9485 after 24 hrs by serial dilution method. Type of series: functional. Particulars: for MIC50 / MIC90 / MIC80: NCIMB 9485, 24 h.
The nature of series [17]: Toxicity in sixth development stage of Galleria mellonella larvae assessed as survival rate at 100 ug/ml after 72 hrs. The format is organism-based. The following applies: in vivo.
Series [18] in a line: Toxicity in sixth development stage of Galleria mellonella larvae assessed as survival rate at 100 ug/ml after 24 hrs. Particulars: in vivo. Type of series: organism-based.
Series [19] in a line: Toxicity in sixth development stage of Galleria mellonella larvae assessed as survival rate at 50 ug/ml after 72 hrs. The format is organism-based. Particulars: in vivo.
Series [20] relates to Staphylococcus aureus. In words: Antibacterial activity against methicillin-resistant Staphylococcus aureus after 24 hrs by serial dilution method. The format is functional.

A word on the MIC50: it is the lowest concentration that inhibits either 50% of growth or 50% of the strains tested, depending on the study. For orientation: MIC90 means the lowest concentration that inhibits either 90% of growth or 90% of the strains tested, depending on the study. Read a low MIC90 as higher susceptibility. As for `C=C[C@H]1CN2CC[C@H]1C[C@H]2[C@@H](NC(=S)Nc1ccccc1)c1ccnc2ccc(OC)cc12`, the survival at 48 h in series [1], in series [2], in [9], in series [10] and in series [14] was 100% throughout. The survival at 72 h in [3], in [7], in [13], in [17] and in series [19] was 100% throughout. The survival at 24 h in series [4], in [8], in series [11], in series [12] and in series [18] was 100% throughout. Also, the values for the MIC50 in series [5] and in series [16] were 54.6 µM (≈ 25 µg/mL) and 40.9 µM (≈ 18.8 µg/mL), respectively. The MIC90 amounted to 164 µM (≈ 75.1 µg/mL) in series [5] and 81.8 µM (≈ 37.5 µg/mL) in [16]. For the same molecule, the MIC result in series [6] was “inactive”. Also, the Activity result in [15] is reported as “Non-toxic”.
Turning to `C=C[C@H]1CN2CC[C@H]1C[C@H]2[C@@H](NC(=S)Nc1cc(C(F)(F)F)cc(C(F)(F)F)c1)c1ccnc2ccccc12`, the survival at 48 h in [1], in series [2], in series [9], in [10] and in series [14] was 100% in each case. The survival at 72 h in series [3], in [7], in series [13], in [17] and in [19] was 100% in each case. Further, the survival at 24 h in series [4], in series [8], in series [11], in [12] and in [18] was 100% each time. Besides, the MIC50 is 8.32 µM (≈ 4.7 µg/mL) in series [5], 10.8 µM (≈ 6.1 µg/mL) in series [20] and 5.54 µM (≈ 3.13 µg/mL) in series [16]. Besides, the figures for the MIC90 in series [5], in [20] and in series [16] were 16.6 µM (≈ 9.38 µg/mL), 18.1 µM (≈ 10.2 µg/mL) and 8.32 µM (≈ 4.7 µg/mL), respectively. The MIC result in [6] was “inactive”. Further, the Activity result in series [15] is on record as “Non-toxic”.
In series [5], `CCNC(=S)Nc1cc(C(F)(F)F)cc(C(F)(F)F)c1` came in with an MIC50 above 316 µM and an MIC90 above 316 µM. For the same molecule, the MIC entry in [6] was “inactive”. In series [16], the MIC50 was found to be 158 µM (≈ 50 µg/mL) and the MIC90 is above 316 µM.
For the molecule `CCC1CN2CCC1C[C@@H]2[C@@H](Oc1nnc(O[C@@H](c2ccnc3ccc(OC)cc23)[C@H]2CC3CCN2CC3CC)c2ccccc12)c1ccnc2ccc(OC)cc12` (stereo partly specified), the MIC90 was 189 µM (≈ 147 µg/mL) in series [5] and above 200 µM in [16]. In addition, the MIC entry in [6] was “inactive”.
By MIC80 is commonly meant the lowest concentration that inhibits either 80% of growth or 80% of the strains tested, depending on the study. With `CN(C)[C@@H]1CCCC[C@H]1NC(=S)Nc1cc(C(F)(F)F)cc(C(F)(F)F)c1`, in [5], the MIC80 amounted to 90.8 µM (≈ 37.5 µg/mL). Besides, the MIC result in [6] was “inactive”. In series [20], the MIC50 amounted to 21.5 µM (≈ 8.91 µg/mL) and the MIC90 stood at 32.2 µM (≈ 13.3 µg/mL). In series [16], the MIC50 was 23.8 µM (≈ 9.84 µg/mL), the MIC80 was determined as 90.8 µM (≈ 37.5 µg/mL) and the MIC90 amounted to 120 µM (≈ 49.6 µg/mL).
Turning to `CCC1CN2CCC1CC2[C@@H](OC(=O)c1ccc(Cl)cc1)c1ccnc2ccc(OC)cc12` (stereo partly specified), the results for the MIC90 in [5] and in series [16] were 79.4 µM (≈ 36.9 µg/mL) and above 200 µM, respectively. Besides, the MIC entry in series [6] is “inactive”.
Consider `CN[C@@H](CC(C)C)C(=O)N[C@H]1C(=O)N[C@@H](CC(N)=O)C(=O)N[C@H]2C(=O)N[C@H]3C(=O)N[C@H](C(=O)N[C@@H](C(=O)O)c4cc(O)cc(O)c4-c4cc3ccc4O)[C@H](O)c3ccc(c(Cl)c3)Oc3cc2cc(c3O[C@H]2O[C@@H](CO)[C@H](O)[C@@H](O)[C@@H]2O[C@@H]2C[C@@](C)(N)[C@@H](O)[C@@H](C)O2)Oc2ccc(cc2Cl)[C@H]1O` [listing 1 of 2 here], for which, in series [5], the MIC50 was 1.58 µM (≈ 2.29 µg/mL), the MIC80 worked out at 3.16 µM (≈ 4.58 µg/mL) and the MIC90 came to 4.21 µM (≈ 6.1 µg/mL). In series [16], this molecule came in with an MIC50 of 1.58 µM (≈ 2.29 µg/mL), an MIC80 of 2.1 µM (≈ 3.04 µg/mL) and an MIC90 of 4.21 µM (≈ 6.1 µg/mL).
For the molecule `CCC1CN2CCC1C[C@@H]2[C@@H](Oc1nc(-c2ccccc2)nc(O[C@@H](c2ccnc3ccc(OC)cc23)[C@H]2CC3CCN2CC3CC)c1-c1ccccc1)c1ccnc2ccc(OC)cc12` (stereo partly specified), the MIC90 in series [5] and in [16] was above 200 µM in each case. Further, the MIC entry in series [6] is “inactive”.
As to `CNC(=S)Nc1cc(C(F)(F)F)cc(C(F)(F)F)c1`, the MIC result in series [5], in series [6] and in series [16] was “inactive” in each case.
As for `FC(F)(F)c1cc(NC(=S)NC2CCCCC2)cc(C(F)(F)F)c1`, in [5], the MIC50 worked out at 135 µM (≈ 50 µg/mL) and the MIC90 is above 270 µM. Moreover, the MIC result in series [6] was “inactive”. In series [16], this molecule showed an MIC50 of 101 µM (≈ 37.5 µg/mL) and an MIC90 above 270 µM.
In the case of `C=CC1CN2CCC1CC2[C@@H](Oc1cc(C)c2ccccc2n1)c1ccnc2ccc(OC)cc12` (stereo partly specified), the MIC90 was 115 µM (≈ 53.5 µg/mL) in series [5] and above 200 µM in series [16]. Also, in [6], the MIC entry was “inactive”.
With `CCC1CN2CCC1C[C@H]2[C@@H](Oc1ccc(O[C@@H](c2ccnc3ccc(OC)cc23)[C@@H]2CC3CCN2CC3CC)c2c1C(=O)c1ccccc1C2=O)c1ccnc2ccc(OC)cc12` (stereo partly specified), in [5], the MIC82 stood at 124.9 µM (≈ 107 µg/mL). In addition, the MIC entry in series [6] was “inactive”. Besides, the MIC90 in series [16] is above 200 µM.
Molecule `CN[C@@H](CC(C)C)C(=O)N[C@H]1C(=O)N[C@@H](CC(N)=O)C(=O)N[C@H]2C(=O)N[C@H]3C(=O)N[C@H](C(=O)N[C@@H](C(=O)O)c4cc(O)cc(O)c4-c4cc3ccc4O)[C@H](O)c3ccc(c(Cl)c3)Oc3cc2cc(c3O[C@H]2O[C@@H](CO)[C@H](O)[C@@H](O)[C@@H]2O[C@@H]2C[C@@](C)(N)[C@@H](O)[C@@H](C)O2)Oc2ccc(cc2Cl)[C@H]1O` [listing 2 of 2 here] returned an MIC90 in series [20] of 1.35 µM (≈ 1.96 µg/mL).
With `CCC1CN2CCC1CC2[C@@H](Oc1cc2ccccc2c2ccccc12)c1ccnc2ccc(OC)cc12` (stereo partly specified), the MIC90 in series [5] and in [16] was above 200 µM in each case. Moreover, in series [6], the MIC entry is “inactive”.
Take `CN(C)CCNC(=S)Nc1cc(C(F)(F)F)cc(C(F)(F)F)c1`: the MIC entry in [5], in series [6] and in series [16] was “inactive” throughout.
For the molecule `C=CC1CN2CCC1CC2[C@H](OCc1ccccc1)c1ccnc2ccc(OC)cc12` (stereo partly specified), the MIC90 in [5] and in series [16] was above 200 µM each time. In addition, in [6], the MIC entry was “inactive”.
Consider `COC(=O)[C@@H]1C[C@H](NC(=S)Nc2cc(C(F)(F)F)cc(C(F)(F)F)c2)CN1`, for which the MIC90 in series [5] and in [16] was above 200 µM throughout. Moreover, in series [6], the MIC result is “inactive”.
Turning to `FC(F)(F)c1cc(NC(=S)Nc2ccccc2)cc(C(F)(F)F)c1`, the survival at 48 h in series [1], in series [2], in series [9], in series [10] and in series [14] was 100% each time. Besides, the survival at 72 h in series [3], in [7], in [13], in [17] and in [19] was 100% each time. Moreover, the survival at 24 h in series [4], in series [8], in series [11], in series [12] and in [18] was 100% each time. In addition, the MIC50 in series [5] is above 275 µM; in [16], 51.5 µM (≈ 18.8 µg/mL). The MIC80 in series [5] was above 275 µM; in series [16], 103 µM (≈ 37.5 µg/mL). Moreover, the MIC90 in series [5] is above 275 µM; in [16], 206 µM (≈ 75.1 µg/mL). In addition, the MIC entry in series [6] was “inactive”. In addition, in series [15], the Activity entry was “Non-toxic”.
On to `C=C[C@H]1CN2CC[C@H]1C[C@H]2[C@@H](N)c1ccnc2ccc(OC)cc12`, for which, in series [5], the MIC50 is above 309 µM and the MIC90 is above 309 µM. The MIC entry in series [6] is “inactive”. Moreover, in series [16], the MIC50 was above 309 µM and the MIC90 turned out to be 309 µM (≈ 100 µg/mL).
